Activity calls are given as the source filed them.
Tests used:
[1] = molecular target: 1-phosphatidylinositol 4,5-bisphosphate phosphodiesterase beta-3 (Homo sapiens, UniProt Q01970); assay: Fluorescence-based biochemical high throughput dose response assay to identify inhibitors of phospholipase C isozymes (PLC-B3).
[2] = molecular target: 1-phosphatidylinositol 4,5-bisphosphate phosphodiesterase gamma-1 (Homo sapiens, UniProt P19174); assay: Counterscreen for inhibitors of phospholipase C isozymes (PLC-B3): Fluorescence-based biochemical high throughput dose response assay to identify inhibitors of phospholipase C isozymes (PLC-gamma1).
Chain of 1-phosphatidylinositol 4,5-bisphosphate phosphodiesterase gamma-1 (P19174 whole entry): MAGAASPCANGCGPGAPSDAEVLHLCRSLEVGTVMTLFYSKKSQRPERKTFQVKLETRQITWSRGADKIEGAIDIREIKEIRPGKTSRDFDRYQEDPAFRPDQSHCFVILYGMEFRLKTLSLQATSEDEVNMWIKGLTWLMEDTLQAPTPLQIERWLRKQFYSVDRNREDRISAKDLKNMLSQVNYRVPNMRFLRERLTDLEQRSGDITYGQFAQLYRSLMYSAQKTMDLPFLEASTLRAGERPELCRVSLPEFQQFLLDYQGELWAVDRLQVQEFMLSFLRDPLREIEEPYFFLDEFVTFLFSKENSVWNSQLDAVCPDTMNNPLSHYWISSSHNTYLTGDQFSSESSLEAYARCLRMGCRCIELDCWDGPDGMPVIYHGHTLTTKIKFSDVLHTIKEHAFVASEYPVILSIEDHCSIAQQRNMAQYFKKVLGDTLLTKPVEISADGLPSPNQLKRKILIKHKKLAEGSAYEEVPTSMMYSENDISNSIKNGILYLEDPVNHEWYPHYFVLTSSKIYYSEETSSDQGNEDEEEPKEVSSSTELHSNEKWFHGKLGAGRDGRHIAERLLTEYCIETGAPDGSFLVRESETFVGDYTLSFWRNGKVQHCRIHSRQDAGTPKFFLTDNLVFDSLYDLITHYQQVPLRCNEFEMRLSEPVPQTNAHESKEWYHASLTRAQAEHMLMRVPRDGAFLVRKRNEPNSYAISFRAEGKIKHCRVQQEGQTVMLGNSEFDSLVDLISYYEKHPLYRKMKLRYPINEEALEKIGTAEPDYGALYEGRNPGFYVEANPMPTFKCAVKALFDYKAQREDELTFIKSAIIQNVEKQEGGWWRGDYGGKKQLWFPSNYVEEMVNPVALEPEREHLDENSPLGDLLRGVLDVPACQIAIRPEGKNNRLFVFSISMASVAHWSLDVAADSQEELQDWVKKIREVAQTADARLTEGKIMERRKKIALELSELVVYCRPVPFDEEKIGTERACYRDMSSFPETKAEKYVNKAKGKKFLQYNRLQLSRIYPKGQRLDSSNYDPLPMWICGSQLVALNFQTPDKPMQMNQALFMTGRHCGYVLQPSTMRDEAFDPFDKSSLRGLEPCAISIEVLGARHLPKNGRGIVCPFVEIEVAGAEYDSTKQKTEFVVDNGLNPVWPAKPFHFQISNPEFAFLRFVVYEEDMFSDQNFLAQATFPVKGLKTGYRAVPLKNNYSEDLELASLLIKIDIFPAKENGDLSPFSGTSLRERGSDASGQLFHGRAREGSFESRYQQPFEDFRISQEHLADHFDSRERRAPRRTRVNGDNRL

[3] = general mammalian cell viability loss – activator set, cherry-pick, cytotoxicity control for miR-122 modulator project, dose response (AID 720690); format: functional, cell-based;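 also: HEK293T human cells scored for general mammalian cytotoxicity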
[4] = activation of miR-122 Renilla sensor silencing – cell-based, Huh7 psiCHECK-miR122, Renilla luciferase, cherry-picked, dose response (AID 651956); format: functional;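 also: huh7 hepatoma cells stably carrying a psiCHECK-2 miR-122 sensor plasmid; renilla luciferase signal reporting endogenous miR-122 activity after 48 h compound exposure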
[5] = molecular target: Potassium channel subfamily K member 9 (Homo sapiens, UniProt Q9NPC2); assay: KCNK9 flux blockade, concentration-response – cell-based, FluxOR thallium flux, selectivity assay for TASK1 inhibitor project, SAR follow-up (AID 652211); format: functional;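 also: potency is for inhibitors of the channel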
[6] = molecular target: T1, Sentrin-specific protease 8 (Homo sapiens, UniProt Q96LD8); format: functional
T1 sequence (Q96LD8 whole entry): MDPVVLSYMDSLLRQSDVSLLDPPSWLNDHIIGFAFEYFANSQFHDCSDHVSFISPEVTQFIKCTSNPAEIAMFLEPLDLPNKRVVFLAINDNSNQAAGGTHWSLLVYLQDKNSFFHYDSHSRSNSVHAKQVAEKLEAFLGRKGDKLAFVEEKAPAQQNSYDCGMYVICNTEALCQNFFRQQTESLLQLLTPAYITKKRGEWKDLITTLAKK

[7] = molecular target: T2, Replicative DNA helicase DnaB (Mycobacterium tuberculosis, UniProt P9WMR3); assay: DnaB intein splicing inhibitors, dose response, biochemical, cell-free fluorescence (AID 449749); format: functional
T2 sequence (P9WMR3 whole entry): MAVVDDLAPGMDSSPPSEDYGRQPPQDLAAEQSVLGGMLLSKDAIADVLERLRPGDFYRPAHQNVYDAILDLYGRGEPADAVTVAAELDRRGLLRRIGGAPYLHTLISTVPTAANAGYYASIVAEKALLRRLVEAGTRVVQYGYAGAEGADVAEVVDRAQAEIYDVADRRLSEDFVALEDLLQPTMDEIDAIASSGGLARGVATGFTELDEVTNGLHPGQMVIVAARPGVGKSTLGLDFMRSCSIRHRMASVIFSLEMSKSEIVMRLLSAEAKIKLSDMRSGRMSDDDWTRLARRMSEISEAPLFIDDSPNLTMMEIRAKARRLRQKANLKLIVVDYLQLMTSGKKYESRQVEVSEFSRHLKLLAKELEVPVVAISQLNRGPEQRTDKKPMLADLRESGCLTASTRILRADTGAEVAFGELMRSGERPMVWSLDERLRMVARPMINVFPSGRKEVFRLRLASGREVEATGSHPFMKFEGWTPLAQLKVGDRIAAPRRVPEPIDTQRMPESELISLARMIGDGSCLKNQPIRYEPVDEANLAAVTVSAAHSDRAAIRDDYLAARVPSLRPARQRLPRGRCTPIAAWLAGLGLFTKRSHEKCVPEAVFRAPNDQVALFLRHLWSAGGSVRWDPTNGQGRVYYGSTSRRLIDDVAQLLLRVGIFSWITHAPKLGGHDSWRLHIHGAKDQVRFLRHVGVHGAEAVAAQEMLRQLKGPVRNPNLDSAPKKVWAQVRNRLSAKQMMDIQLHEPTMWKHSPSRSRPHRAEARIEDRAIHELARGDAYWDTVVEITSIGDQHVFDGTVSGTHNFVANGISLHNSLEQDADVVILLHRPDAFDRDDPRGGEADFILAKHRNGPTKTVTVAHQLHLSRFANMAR

[8] = molecular target: Tyrosyl-DNA phosphodiesterase 2 (Homo sapiens, UniProt O95551); assay: potency against TDP2 phosphodiesterase activity – biochemical, epi absorbance, IC50, dose response (AID 743297)
Chain of Tyrosyl-DNA phosphodiesterase 2 (O95551 whole entry): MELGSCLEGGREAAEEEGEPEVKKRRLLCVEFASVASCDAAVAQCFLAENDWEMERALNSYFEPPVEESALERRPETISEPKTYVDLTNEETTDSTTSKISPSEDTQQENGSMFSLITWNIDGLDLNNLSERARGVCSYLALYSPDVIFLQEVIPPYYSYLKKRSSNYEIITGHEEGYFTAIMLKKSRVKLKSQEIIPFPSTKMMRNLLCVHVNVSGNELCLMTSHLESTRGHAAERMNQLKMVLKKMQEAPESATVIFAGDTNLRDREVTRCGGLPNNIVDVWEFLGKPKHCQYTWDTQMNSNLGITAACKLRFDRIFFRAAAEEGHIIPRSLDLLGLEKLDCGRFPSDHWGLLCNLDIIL

[9] = molecular target: T3, Heat shock factor protein 1 (Mus musculus, UniProt P38532); assay: decrease of HSF1-responsive luciferase luminescence – cell-based, NIH3T3, dose retest, confirmation (AID 2382); format: functional;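 also: NIH3T3 fibroblasts with HSF1-driven luciferase reporter stressed by proteasome inhibitor MG132; luminescence from HSF1-driven luciferase expression after 8 hours of MG132 stress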
T3 sequence (P38532 whole entry): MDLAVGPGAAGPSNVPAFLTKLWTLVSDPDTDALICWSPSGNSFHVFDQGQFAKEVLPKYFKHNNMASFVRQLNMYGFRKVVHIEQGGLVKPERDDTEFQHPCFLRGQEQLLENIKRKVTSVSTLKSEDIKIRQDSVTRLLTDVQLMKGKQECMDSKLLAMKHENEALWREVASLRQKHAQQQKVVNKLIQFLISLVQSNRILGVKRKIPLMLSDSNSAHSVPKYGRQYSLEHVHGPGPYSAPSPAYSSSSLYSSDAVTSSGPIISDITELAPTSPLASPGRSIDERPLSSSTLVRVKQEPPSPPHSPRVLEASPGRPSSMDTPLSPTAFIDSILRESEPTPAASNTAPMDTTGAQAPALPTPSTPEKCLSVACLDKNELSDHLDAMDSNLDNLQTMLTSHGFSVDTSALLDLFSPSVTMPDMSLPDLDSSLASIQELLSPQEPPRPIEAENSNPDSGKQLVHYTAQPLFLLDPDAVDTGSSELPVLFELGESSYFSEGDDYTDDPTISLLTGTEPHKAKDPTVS

[10] = molecular target: T1, Sentrin-specific protease 8; format: functional; remark: listed apart in the source
Protein RecA = molecular target: T4, Protein RecA (Mycobacterium tuberculosis, UniProt P9WHJ3); assay: Fluorescence Cell-Free Homogeneous Dose Retest to Identify Inhibitors of RecA-Intein Splicing Activity. [Related pubchem assays (depositor defined):AID2097, AID2223, AID489010, AID492950]; format: functional
T4 sequence (P9WHJ3 whole entry): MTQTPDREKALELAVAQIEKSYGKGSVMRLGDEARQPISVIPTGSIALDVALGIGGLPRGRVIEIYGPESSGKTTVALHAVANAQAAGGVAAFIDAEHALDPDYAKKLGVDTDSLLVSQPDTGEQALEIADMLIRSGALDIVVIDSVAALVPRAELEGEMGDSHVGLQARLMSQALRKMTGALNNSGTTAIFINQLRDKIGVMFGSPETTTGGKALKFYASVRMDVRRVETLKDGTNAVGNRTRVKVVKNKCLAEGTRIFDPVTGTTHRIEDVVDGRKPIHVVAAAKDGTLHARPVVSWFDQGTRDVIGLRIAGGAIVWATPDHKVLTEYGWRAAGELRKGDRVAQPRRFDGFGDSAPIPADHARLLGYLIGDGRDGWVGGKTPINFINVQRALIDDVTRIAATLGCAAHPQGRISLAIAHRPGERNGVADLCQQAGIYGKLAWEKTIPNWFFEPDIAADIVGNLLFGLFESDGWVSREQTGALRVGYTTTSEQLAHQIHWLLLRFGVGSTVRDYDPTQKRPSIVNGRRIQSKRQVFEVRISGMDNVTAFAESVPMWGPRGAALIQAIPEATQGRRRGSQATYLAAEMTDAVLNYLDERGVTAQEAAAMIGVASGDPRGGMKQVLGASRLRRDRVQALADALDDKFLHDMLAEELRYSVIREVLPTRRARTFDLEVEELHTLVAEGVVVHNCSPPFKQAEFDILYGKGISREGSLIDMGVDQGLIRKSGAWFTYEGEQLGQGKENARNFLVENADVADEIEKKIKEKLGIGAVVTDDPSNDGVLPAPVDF

fMet-Leu-Phe receptor = fMet-Leu-Phe receptor (Homo sapiens, UniProt P21462); assay: formyl peptide receptor binders – dose response (AID 519); format: functional
Chain of fMet-Leu-Phe receptor (P21462 whole entry): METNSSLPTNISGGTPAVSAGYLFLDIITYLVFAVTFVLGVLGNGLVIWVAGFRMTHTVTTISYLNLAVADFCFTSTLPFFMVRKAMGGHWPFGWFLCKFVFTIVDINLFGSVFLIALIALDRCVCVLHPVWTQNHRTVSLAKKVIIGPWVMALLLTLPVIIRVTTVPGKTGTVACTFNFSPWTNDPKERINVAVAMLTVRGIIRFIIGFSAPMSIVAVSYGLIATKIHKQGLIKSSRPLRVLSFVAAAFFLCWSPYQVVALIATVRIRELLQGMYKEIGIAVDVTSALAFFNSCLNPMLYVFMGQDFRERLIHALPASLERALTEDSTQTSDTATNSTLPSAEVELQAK

[11] = viability loss in HEK293 kidney cells – cell-based, cherry-picks, set 5, cytotoxicity control, dose response (AID 1053117); format: functional
[12] = blockers of FN fibrillogenesis by fibroblasts – AH1F cells, Alexa488-FN fluorescence, cherry-picks, dose response (AID 1035475); format: functional, cell-based
H9c2 = assay: cells; format: functional, cell-based; details: Rattus norvegicus, H9c2, Myocardium
[13] = molecular target: Histone-lysine N-methyltransferase NSD2 (Homo sapiens, UniProt O96028); format: biochemical
Chain of Histone-lysine N-methyltransferase NSD2 (O96028 whole entry): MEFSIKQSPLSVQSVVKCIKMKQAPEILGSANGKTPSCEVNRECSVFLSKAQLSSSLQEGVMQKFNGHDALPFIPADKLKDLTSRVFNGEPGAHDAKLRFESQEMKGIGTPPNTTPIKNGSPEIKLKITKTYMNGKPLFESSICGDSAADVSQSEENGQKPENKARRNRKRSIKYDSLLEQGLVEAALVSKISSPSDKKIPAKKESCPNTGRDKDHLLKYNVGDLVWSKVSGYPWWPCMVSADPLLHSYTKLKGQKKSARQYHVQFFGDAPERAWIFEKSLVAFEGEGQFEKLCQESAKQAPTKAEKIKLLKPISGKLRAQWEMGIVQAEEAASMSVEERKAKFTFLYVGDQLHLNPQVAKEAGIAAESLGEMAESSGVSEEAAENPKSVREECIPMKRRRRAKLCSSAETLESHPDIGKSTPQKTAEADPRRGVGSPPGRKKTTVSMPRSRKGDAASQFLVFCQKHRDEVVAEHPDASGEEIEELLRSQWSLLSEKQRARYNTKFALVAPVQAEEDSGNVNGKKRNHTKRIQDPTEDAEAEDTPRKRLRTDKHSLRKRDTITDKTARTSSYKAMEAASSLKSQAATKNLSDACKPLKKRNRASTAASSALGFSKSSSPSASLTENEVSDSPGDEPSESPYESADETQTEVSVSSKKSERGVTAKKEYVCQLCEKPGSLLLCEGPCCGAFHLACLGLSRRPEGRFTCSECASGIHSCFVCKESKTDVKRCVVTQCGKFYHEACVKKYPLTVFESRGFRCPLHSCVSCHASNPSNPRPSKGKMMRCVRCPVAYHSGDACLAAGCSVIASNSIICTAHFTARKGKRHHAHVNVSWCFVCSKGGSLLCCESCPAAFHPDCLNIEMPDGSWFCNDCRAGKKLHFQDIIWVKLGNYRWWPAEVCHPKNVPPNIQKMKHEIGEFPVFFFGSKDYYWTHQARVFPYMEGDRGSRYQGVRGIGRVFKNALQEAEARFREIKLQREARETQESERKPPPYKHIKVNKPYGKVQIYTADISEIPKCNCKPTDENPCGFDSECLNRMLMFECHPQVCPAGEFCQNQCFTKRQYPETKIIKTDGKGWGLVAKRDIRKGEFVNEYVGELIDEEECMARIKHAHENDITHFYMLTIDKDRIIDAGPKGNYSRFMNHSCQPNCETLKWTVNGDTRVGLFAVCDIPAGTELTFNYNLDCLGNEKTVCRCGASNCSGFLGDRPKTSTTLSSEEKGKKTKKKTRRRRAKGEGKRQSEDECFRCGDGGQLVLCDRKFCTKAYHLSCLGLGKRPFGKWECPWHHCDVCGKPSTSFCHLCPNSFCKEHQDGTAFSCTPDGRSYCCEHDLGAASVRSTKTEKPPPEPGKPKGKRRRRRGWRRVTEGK

[14] = toxicity to human hepatoma HepG2 cells – cell-based, cherry-picked samples, cytotoxicity control, dose response (AID 1159577); format: functional
[15] = viability loss in A549 lung cancer cells – cell-based, cherry-picks, […], cytotoxicity control, dose response (AID 1053119); format: functional
[16] = P. falciparum Dd2 growth inhibitors, dose response, SYBR Green, cherry-picked samples (AID 1159567); format: functional, cell-based
[17] = viability loss in HepG2 hepatoma cells – cell-based, cherry-picks, set 5, cytotoxicity control, dose response (AID 1053118); format: functional
[18] = OVCAR8 cell viability loss – plate reader, dry powder samples, PAX8 project, dose response (AID 743197); format: functional, cell-based; details: OVCAR-8
[19] = IGROV1 cell killing – plate reader, dry powder samples, PAX8 inhibitor project, dose response (AID 743043); format: functional, cell-based; details: IGROV-1
[20] = general cell-killing toxicity readout – plate reader, dry powder samples, cytotoxicity control for PAX8 inhibitor project, dose response (AID 743021); format: functional, cell-based
Paired box protein Pax-8 = Paired box protein Pax-8 (Homo sapiens, UniProt Q06710); assay: PAX8 transcriptional activity inhibition in RMG-I – RMG-I cells, luciferase, cherry-pick, dose response (AID 687027); format: functional, cell-based;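 also: luciferase reporter driven by Pax8 target thyroperoxidase promoter measured by SteadyGlo luminescence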
Chain of Paired box protein Pax-8 (Q06710 whole entry): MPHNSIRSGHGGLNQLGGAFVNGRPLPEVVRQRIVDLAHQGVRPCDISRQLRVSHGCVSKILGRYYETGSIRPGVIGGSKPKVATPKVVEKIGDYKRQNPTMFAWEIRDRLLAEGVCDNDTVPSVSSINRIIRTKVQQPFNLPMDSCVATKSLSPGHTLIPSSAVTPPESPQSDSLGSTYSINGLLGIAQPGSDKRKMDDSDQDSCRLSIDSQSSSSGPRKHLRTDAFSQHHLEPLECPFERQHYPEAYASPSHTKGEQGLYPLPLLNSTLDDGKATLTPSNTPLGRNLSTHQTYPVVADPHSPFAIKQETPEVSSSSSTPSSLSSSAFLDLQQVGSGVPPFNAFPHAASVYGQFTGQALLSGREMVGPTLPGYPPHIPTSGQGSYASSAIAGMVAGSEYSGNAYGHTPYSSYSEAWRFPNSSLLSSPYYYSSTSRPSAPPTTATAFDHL

[21] = OVCAR-3 cell viability loss – plate reader, dry powder samples, PAX8 inhibitor project, dose response (AID 743044); format: functional, cell-based
[22] = molecular target: T5, Trace amine-associated receptor 1 (Homo sapiens, UniProt Q96RJ0); assay: Fluorescence-based cell-based high throughput dose response assay to identify agonists of the human trace amine associated receptor 1 (TAAR1).; format: functional
T5 sequence (Q96RJ0 whole entry): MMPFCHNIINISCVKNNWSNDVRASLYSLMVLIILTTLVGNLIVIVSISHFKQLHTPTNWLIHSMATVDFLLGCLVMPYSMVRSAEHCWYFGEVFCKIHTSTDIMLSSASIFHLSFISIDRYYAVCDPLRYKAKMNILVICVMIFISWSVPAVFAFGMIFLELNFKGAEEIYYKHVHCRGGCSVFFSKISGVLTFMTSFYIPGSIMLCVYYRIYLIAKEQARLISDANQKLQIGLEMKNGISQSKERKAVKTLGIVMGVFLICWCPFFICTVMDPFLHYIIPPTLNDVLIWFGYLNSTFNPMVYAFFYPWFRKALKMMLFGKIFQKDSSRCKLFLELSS

[23] = molecular target: T5, Trace amine-associated receptor 1; assay: Counterscreen for agonists of the human trace amine associated receptor 1 (hTAAR1): Fluorescence-based cell-based high throughput dose response assay to identify hTAAR1 agonist that also desensitize TAAR1 receptor response.; format: functional
[24] = molecular target: T3, Heat shock factor protein 1; assay: enhancement of HSF1-driven luciferase signal – cell-based, NIH3T3, luminescence, dose retest, confirmation (AID 435004); format: functional;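 also: stress induced by proteasome inhibitor MG132 added 30 min after compound; luciferase reporter driven by HSF1 response element in NIH3T3 cells; actives raise luminescence as potentiators of the MG132 stress response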
cells [25] = format: functional, cell-based
cells [26] = format: functional, cell-based; remark: listed apart in the source

Chain of 1-phosphatidylinositol 4,5-bisphosphate phosphodiesterase beta-3 (Q01970 whole entry): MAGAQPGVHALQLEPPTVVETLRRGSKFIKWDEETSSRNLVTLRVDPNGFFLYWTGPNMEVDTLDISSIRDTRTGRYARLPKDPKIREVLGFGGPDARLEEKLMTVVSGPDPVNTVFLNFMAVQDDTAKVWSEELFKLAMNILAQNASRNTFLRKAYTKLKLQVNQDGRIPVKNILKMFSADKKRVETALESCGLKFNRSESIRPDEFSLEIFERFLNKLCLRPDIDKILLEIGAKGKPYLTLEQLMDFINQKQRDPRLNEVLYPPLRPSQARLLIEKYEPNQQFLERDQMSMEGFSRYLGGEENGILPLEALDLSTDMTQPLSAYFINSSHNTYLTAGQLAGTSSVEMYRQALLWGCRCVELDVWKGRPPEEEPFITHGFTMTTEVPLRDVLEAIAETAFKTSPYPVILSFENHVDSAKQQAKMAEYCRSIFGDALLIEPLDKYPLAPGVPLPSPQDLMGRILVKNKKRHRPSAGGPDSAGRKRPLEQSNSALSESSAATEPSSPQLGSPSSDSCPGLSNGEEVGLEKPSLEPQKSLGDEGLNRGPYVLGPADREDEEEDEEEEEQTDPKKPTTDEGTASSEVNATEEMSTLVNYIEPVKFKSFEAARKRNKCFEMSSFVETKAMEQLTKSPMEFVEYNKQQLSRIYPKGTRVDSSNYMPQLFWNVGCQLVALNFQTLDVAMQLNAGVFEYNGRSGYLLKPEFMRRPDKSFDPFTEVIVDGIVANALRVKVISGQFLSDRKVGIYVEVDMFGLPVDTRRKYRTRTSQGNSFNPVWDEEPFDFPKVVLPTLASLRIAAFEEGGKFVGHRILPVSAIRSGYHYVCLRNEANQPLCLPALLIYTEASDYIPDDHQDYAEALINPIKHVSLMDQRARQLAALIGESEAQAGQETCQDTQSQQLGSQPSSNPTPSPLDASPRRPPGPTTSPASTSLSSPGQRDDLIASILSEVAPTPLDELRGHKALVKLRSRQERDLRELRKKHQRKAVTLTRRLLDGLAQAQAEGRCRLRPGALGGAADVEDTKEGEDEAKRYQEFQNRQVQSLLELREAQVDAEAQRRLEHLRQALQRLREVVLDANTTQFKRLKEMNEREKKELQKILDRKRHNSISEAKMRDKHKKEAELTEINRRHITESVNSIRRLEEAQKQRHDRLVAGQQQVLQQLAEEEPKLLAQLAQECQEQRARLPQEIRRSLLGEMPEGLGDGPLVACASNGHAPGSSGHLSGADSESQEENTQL

## CCOC(=O)CSc1nnc(Cn2c(=O)sc3ccccc32)n1-c1ccccc1C
[1]
  IC50: > 122 µM (inactive)
[2]
  IC50: > 122 µM (inactive)

## COc1ccc(NC(=O)N2CCCCN3[C@H](CO)[C@H](c4ccc(C#CCC(C)C)cc4)[C@H]3C2)cc1
[3]
  AC50: 16 µM (active)
[4]
  AC50: 7.68 µM (active)

## CN1C(=O)c2cc(NC(=O)c3ccc(C(F)(F)F)cc3)ccc2OC[C@@H]2O[C@H](CC(=O)NCc3ccc4c(c3)OCO4)CC[C@H]21
[3]
  AC50: 34.9 µM (active)
[4]
  AC50: 53.6 µM (active)

## Cc1cccc(C(=O)Nc2cccc(NC(=O)c3cccc(C)c3)c2)c1
[5]
  IC50: 0.99 µM (active)

## Nn1cnnc1N/N=C/c1ccc(Cl)c([N+](=O)[O-])c1
[6]
  IC50: 21.7 µM (active)
[7]
  AC50: 18.1 µM (active)
[8]
  IC50: 81.2 µM (inactive)
[9]
  EC50: 10.2 µM (active)
[10]
  IC50: 23.2 µM (active)
Protein RecA
  EC50: 10.3 µM (active)

## C/C(=C1/SC(N2CCCC2)=NC1=O)c1ccc(Br)cc1
fMet-Leu-Phe receptor
  Ki: > 66.7 µM (inactive)

## C[C@@H]1CN([C@@H](C)CO)C(=O)c2cc(NC(=O)C3CCCCC3)ccc2O[C@H]1CN(C)Cc1ccc(-c2ccccc2)cc1
[11]
  AC50: > 52 µM (inactive)
[12]
  AC50: 30.9 µM (active)

## O=C(CN1CCN(S(=O)(=O)c2ccc(Br)cc2)CC1)c1ccc(O)c(O)c1
H9c2
  IC50: > 79 µM (inactive)
[13]
  AC50: 8.3 µM (active)

## CO[C@@H]1CN(C)C(=O)c2cc(NC(=O)Nc3ccc(Cl)c(Cl)c3)ccc2OC[C@@H](C)NC[C@@H]1C
[14]
  AC50: 18.2 µM (active)
[11]
  AC50: 45.9 µM (active)
[15]
  AC50: > 52 µM (inactive)
[16]
  AC50: 5.7 µM (active)
[17]
  AC50: > 52 µM (inactive)

## COc1ccc(-c2ccc3c(c2)[C@H]2[C@H](CCN2S(=O)(=O)c2ccc(F)cc2)[C@H](CO)N3C)cc1
[18]
  AC50: 31.8 µM (active)
[19]
  AC50: 34.4 µM (active)
[20]
  AC50: 63.7 µM (active)
Paired box protein Pax-8
  AC50: 8.98 µM (active)
[21]
  AC50: 19.3 µM (active)

## O=S(=O)(c1ccc(Cl)cc1)c1cnc2ccccc2n1
[1]
  IC50: > 123 µM (inactive)
[2]
  IC50: > 123 µM (inactive)

## c1ccc2c3c([nH]c2c1)CCNC3
[22]
  EC50: 0.412 µM (active)
[23]
  IC50: 1.77 µM (active)
[24]
  EC50: > 260 µM (inactive)
Cells [25]
  EC50: > 29.9 µM (inactive)
Cells [26]
  IC50: > 29.9 µM (inactive)

## CCOc1ccc(C2C(C(=O)c3ccco3)=C(O)C(=O)N2Cc2cccnc2)cc1 (stereo not given)
fMet-Leu-Phe receptor
  Ki: 15.3 µM (inactive)

## O=S(=O)(c1cccc(F)c1)N1CC[C@@H]2[C@H](CO)Nc3ccc(-c4cccc(F)c4)cc3[C@@H]21
[11]
  AC50: 27.2 µM (active)
[15]
  AC50: 33.4 µM (active)
[17]
  AC50: 42 µM (active)
[12]
  AC50: > 70 µM (inactive)

Reference: ChEMBL document CHEMBL1201862, “PubChem BioAssay data set” (2004)
